Assay results reported in patent publication US4927855A, “Levorotatory isomer of benzhydrylsulfinyl derivatives” (priority 1986, dated 1990).

Tests used:
[1] = Activity and lethality of the metabolite CRL 40 467 in male mice; format: in vivo
[2] = Pharmacokinetic study on dogs (plasma AUC, metabolism to CRL 40 467); format: in vivo; conditions: for AUCo^+9h of CRL 40 476, comparison between products administered: dogs, oral, 30 mg/kg, plasma, 0-9 h, stereoisomers not distinguished; for conversion to inactive metabolite CRL 40 467: in the organism
From the text: to distinguish CRL 40 982 from the racemic and dextrorotatory compounds, a kinetic study of the metabolism was undertaken on dogs (group of four animals). In a randomized crossover procedure, each animal received the following at the rate of one oral administration per week: 2 administrations of CRL 40 476 (for assessment of the variations within individuals), 1 administration of CRL 40 982 and 1 administration of CRL 40 983. Following each of these administrations, the kinetics of the CRL 40 476 and CRL 40 467 present in the plasma were determined (without looking to see whether these two products were in the racemic, levorotatory and/or dextrorotatory form, because of the difficulties associated with determining the optical rotation of each of the optical isomers in a biological medium).
The dose administered for each of the test substances CRL 40 476, CRL 40 982 and CRL 40 983 was 30 mg/kg.
After administration of CRL 40 476, the said CRL 40 476 and its metabolite, CRL 40 467, are found in the plasma.
After the administration of CRL 40 982, the following are found in the plasma: the said CRL 40 982, which will be characterized and determined as being CRL 40 476 by way of convenience, in view of what has been said above, and a metabolite which will be characterized and determined as being CRL 40 467.
Likewise, after administration of CRL 40 983, the 2 corresponding products in the plasma will be characterized and determined as being CRL 40 476 and CRL 40 467.
The curves of the plasma concentrations of the said CRL 40 476 and CRL 40 467 as a function of time are plotted from time […] to time T=+9 h after administration of the CRL 40 476, CRL 40 982 and CRL 40 983. The areas under the curves (AUCo^+9h) are then calculated.

[3] = Toxicity in male mice, intraperitoneal administration; format: in vivo
Protocol: (§1) The comparative tests which were undertaken with the levorotatory derivative according to the invention (Ex. 1; Code no.: CRL 40 982), the dextrorotatory derivative (CP1; Code no.: CRL 40 983) and the corresponding racemate (CP2; Code no.: CRL 40 476) have been summarized below. Unless indicated otherwise, the 3 products studied in these tests were administered intraperitoneally as a suspension in an aqueous solution of gum arabic, in a volume of 20 ml/kg to male mice and in a volume of 5 ml/kg to male rats.

[4] = Motor activity in mice (actimeter); format: in vivo, male mice; conditions: for motor activity: 128 mg/kg and to a lesser extent 64 mg/kg, intraperitoneal four hours before 30 min recording; for intensity of stimulant effect / hyperactivity relative to the other products / level and statistical significance of hyperactivity relative to CRL 40 476: intraperitoneal four hours before the test; for level and statistical significance of hyperactivity relative to CRL 40 476: especially at 128 mg/kg
Protocol: as §1
The mice (6 per dose, 18 control animals) receive CRL 40 476, CRL 40 982 or CRL 40 983 four hours before being placed in an actimeter, where their motility is recorded for 30 minutes.

[5] = Behavior in rats; format: in vivo, male rats; conditions: intraperitoneal; for mydriatic action in male rats: all the doses used; for behavior, reactivities and variations in the rectal temperature and pupil diameter: male rats, 64, 16, 4 and 1 mg/kg
Protocol: as §1
at a dose of 128 mg/kg, CRL 40 476 causes excitation with an increase in the fear ration for 2 h, exophthalmos for 1 h and mydriasis for 1 for 2 h;
at a dose of 32 mg/kg, CRL 40 476 causes excitation (transient, lasting 0.5 h) with an increase in the fear reaction for 1 h, exophthalmos for 0.5-1 h and mydriasis for 1-2 h;
at a dose of 8 mg/kg, CRL 40 476 causes exophthalmos for 0.5-1 h and mydriasis for 0.5 h;
at a dose of 2 mg/kg, CRL 40 476 induces transient mydriasis appearing 1 h after administration, whereas

[6] = Behavior in male mice (stimulant effects); format: in vivo; conditions: intraperitoneal
Protocol: as §1

[7] = Immunostimulant effect in vitro
[8] = Human clinical trials; format: in vivo
[9] = Solubility of CRL 40 982; conditions: alcohols, acetone, water, ether
[10] = male mice, intraperitoneal, 1024, 512, 256, 128 and 64 mg/kg
[11] = human, once or twice a day, tablets or gelatin capsules of 50 to 100 mg

Row | SMILES | AUCo^+9h of CRL 40 476, comparison between products administered [2] | conversion to inactive metabolite CRL 40 467 [2] | LDO (maximum non-lethal dose) [3] | motor activity [4] | intensity of stimulant effect / hyperactivity relative to the other products [4] | stimulant effects in male rats ([5]; male rats) | mydriatic action in male rats ([5]; male rats) | stimulant effects in male mice [6] | level and statistical significance of hyperactivity relative to CRL 40 476 [4] | behavior, reactivities and variations in the rectal temperature and pupil diameter [5] | further results
1 | O=C(O)C[S+]([O-])C(c1ccccc1)c1ccccc1 (racemic) [CRL 40 467, (±)-benzhydrylsulfinylacetic acid] |  |  |  |  |  |  |  |  |  |  | activity of metabolite ([1]; male mice, intraperitoneal, 64-1024 mg/kg): inactive; death of animals treated [1, 10]: does not cause the death of any of the animals treated; duration of brief sedation [1, 10]: 50 to 60 min; psychotropic activity ([1]; neuropsychopharmacological study): did not reveal any psychotropic activity
2 | NC(=O)C[S+]([O-])C(c1ccccc1)c1ccccc1 (racemic) [CRL 40 476, (±)-benzhydrylsulfinylacetamide] | not statistically different | partially converted to (±)-benzhydrylsulfinylacetic acid | greater than or equal to 512 mg/kg | increase in the motor activity | less than that obtained with either CRL 40 982 or CRL 40 983 | is a stimulant | has a mydriatic action at all the doses used | have stimulant effects |  |  | transient mydriasis, time of appearance after administration ([5]; male rats, 2 mg/kg): 1 h; exophthalmos, duration ([5]; male rats, 8 mg/kg): 0.5 to 1 h; mydriasis, duration ([5]; male rats, 8 mg/kg): 0.5 h; excitation (transient), duration ([5]; male rats, 32 mg/kg): 0.5 h; exophthalmos, duration ([5]; male rats, 32 mg/kg): 0.5 to 1 h; increase in the fear reaction, duration ([5]; male rats, 32 mg/kg): 1 h; mydriasis, duration ([5]; male rats, 32 mg/kg): 1 to 2 h; excitation with increase in the fear reaction, duration ([5]; male rats, 128 mg/kg): 2 h; exophthalmos, duration ([5]; male rats, 128 mg/kg): 1 h
3 | NC(=O)C[S+]([O-])C(c1ccccc1)c1ccccc1 (single isomer, unassigned; (+)) [CRL 40 983, (+)-benzhydrylsulfinylacetamide] | not statistically different |  | greater than or equal to 512 mg/kg | increase in the motor activity |  | do not have stimulant effects | devoid of this mydriatic action | have stimulant effects | greater than those due to CRL 40 476 | substantially comparable to those of the control group | conversion to inactive metabolite CRL 40 467 ([2]; listed as dextrorotatory derivative): a very high proportion
4 | NC(=O)C[S+]([O-])C(c1ccccc1)c1ccccc1 (single isomer, unassigned; (-)) [CRL 40 982, (-)-benzhydrylsulfinylacetamide] | approximately twice | only a small proportion of this product is converted to inactive CRL 40 467 |  | increase in the motor activity | stimulant effect equal in intensity to that observed with CRL 40 983 | do not have stimulant effects | devoid of this mydriatic action | have stimulant effects | greater than those due to CRL 40 476 | substantially comparable to those of the control group | bioavailability ([2]; relative to racemic CRL 40 476 and dextrorotatory CRL 40 983): better bioavailability than the racemic compound CRL 40 476 and the dextrorotatory compound CRL 40 983; LD30 [3]: about 512 mg/kg; relative toxicity [3]: more toxic than CRL 40 983 (CP1) and CRL 40 476 (CP2); immunostimulant effect [7]: immunostimulant effect was also observed; long-term clinical action ([8]; human, long term): arousing substance useful for hypersomnia; improvement in Alzheimer's disease [8, 11]: improvement of the symptoms of dementia, memory disorders, aphasia and ideomotor apraxia; stimulant neuropsychopharmacological profile [8, 11]: different stimulant neuropsychopharmacological profile from that of the amphetamines and tricyclic antidepressants; activity towards symptoms of dementia and loss of memory ([8]; human, short and long term, especially in the elderly): particularly active towards the symptoms of dementia and loss of memory; short-term clinical action ([8]; human, short term): purely hypnogenic, antiarousing substance; half-life ([8]; in vivo, human clinical trials, read-out: elimination half-life (converted)): ~10 h; solubility [9]: soluble in alcohols and acetone and insoluble in water and ether
